The source made the active and inactive calls. No cut-off for these calls is given here.
Legend:
[1] = biological target: T1, Neuronal acetylcholine receptor; alpha3/beta4 (Homo sapiens, UniProt P30926+P32297); assay: Non-competitive antagonist activity at human alpha3beta4 nAChR expressed in CHO cells assessed as inhibition of nicotine-induced calcium influx incubated for 30 mins prior to nicotine-induction by calcium-4 based FLIPR analysis; type: cell-based
[2] = biological target: T1, Neuronal acetylcholine receptor; alpha3/beta4; assay: Agonist activity at human alpha3beta4 nAChR expressed in CHO cells at 10 uM by electrophysiological analysis relative to acetylcholine; type: cell-based
[3] = biological target: T1, Neuronal acetylcholine receptor; alpha3/beta4; assay: Displacement of [3H]epibatidine from human alpha3beta4 nAChR expressed in CHO cells after 2 hrs by liquid scintillation counting; type: cell-based
[4] = biological target: T1, Neuronal acetylcholine receptor; alpha3/beta4; assay: Agonist activity at human alpha3beta4 nAChR expressed in CHO cells at 1 uM by electrophysiological analysis relative to acetylcholine; type: cell-based
[5] = biological target: T1, Neuronal acetylcholine receptor; alpha3/beta4; assay: Inhibition of human alpha3beta4 nAChR expressed in CHO cells assessed as inhibition of calcium influx by calcium-4 based FLIPR analysis; type: cell-based
[6] = biological target: T1, Neuronal acetylcholine receptor; alpha3/beta4; assay: Agonist activity at human alpha3beta4 nAChR expressed in CHO cells assessed as calcium influx by calcium-4 based FLIPR analysis relative to nicotine; type: cell-based
[7] = biological target: T1, Neuronal acetylcholine receptor; alpha3/beta4; assay: Reversible inhibition of human alpha3beta4 nAChR expressed in CHO cells assessed as inhibition of acetylcholine-induced response at 1 uM measured after compound washout by electrophysiological method; type: cell-based
[8] = biological target: T1, Neuronal acetylcholine receptor; alpha3/beta4; assay: Agonist activity at human alpha3beta4 nAChR expressed in CHO cells assessed as calcium influx by calcium-4 based FLIPR analysis; type: cell-based
[9] = biological target: T1, Neuronal acetylcholine receptor; alpha3/beta4; assay: Agonist activity at human alpha3beta4 nAChR expressed in CHO cells at 0.1 uM by electrophysiological analysis relative to acetylcholine; type: cell-based
[10] = biological target: T2, Muscarinic acetylcholine receptor M1 (Rattus norvegicus, UniProt P08482); assay: Antagonist activity at rat muscarinic M1 receptor isolated from brain
T2 sequence (P08482 whole entry): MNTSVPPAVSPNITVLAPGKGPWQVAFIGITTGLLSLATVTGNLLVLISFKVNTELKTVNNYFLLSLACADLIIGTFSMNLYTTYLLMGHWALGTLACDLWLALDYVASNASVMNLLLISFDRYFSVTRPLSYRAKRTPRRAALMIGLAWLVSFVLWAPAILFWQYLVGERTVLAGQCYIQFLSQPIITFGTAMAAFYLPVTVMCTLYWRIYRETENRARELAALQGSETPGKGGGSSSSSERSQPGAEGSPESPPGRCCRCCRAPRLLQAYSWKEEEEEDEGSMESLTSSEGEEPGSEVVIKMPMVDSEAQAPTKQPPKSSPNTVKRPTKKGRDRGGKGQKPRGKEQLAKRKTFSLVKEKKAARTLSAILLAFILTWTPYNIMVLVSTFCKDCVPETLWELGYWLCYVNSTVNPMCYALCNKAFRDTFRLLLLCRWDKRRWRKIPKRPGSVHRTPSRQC

[11] = biological target: T3, Muscarinic acetylcholine receptor M2 (Rattus norvegicus, UniProt P10980); assay: Antagonist activity at rat muscarinic M2 receptor isolated from brain
T3 sequence (P10980 whole entry): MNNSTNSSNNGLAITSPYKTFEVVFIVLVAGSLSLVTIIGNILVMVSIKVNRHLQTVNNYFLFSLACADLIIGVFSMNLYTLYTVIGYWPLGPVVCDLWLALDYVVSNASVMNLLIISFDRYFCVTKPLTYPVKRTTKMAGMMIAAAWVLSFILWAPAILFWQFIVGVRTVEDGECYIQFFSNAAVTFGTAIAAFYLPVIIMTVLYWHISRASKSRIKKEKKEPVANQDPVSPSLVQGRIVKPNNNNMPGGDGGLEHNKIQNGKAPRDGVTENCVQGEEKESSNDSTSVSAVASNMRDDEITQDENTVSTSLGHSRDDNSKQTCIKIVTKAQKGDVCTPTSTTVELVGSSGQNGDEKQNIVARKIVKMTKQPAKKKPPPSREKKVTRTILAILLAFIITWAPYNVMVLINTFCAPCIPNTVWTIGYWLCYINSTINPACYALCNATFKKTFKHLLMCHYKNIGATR

T1 sequence (P30926 whole entry): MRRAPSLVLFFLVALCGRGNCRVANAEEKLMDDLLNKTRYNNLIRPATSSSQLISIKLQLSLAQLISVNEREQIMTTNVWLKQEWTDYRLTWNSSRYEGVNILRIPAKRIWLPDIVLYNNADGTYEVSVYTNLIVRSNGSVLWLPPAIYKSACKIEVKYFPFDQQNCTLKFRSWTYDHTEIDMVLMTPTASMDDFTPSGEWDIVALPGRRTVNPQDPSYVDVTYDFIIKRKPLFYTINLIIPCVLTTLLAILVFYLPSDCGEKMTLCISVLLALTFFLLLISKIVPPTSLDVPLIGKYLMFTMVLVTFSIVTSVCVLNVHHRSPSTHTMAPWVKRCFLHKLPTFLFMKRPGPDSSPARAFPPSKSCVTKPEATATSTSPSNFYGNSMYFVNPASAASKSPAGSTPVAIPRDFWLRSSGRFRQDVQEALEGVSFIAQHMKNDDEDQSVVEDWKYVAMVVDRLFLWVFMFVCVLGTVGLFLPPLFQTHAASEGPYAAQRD
T1 sequence (P32297 whole entry): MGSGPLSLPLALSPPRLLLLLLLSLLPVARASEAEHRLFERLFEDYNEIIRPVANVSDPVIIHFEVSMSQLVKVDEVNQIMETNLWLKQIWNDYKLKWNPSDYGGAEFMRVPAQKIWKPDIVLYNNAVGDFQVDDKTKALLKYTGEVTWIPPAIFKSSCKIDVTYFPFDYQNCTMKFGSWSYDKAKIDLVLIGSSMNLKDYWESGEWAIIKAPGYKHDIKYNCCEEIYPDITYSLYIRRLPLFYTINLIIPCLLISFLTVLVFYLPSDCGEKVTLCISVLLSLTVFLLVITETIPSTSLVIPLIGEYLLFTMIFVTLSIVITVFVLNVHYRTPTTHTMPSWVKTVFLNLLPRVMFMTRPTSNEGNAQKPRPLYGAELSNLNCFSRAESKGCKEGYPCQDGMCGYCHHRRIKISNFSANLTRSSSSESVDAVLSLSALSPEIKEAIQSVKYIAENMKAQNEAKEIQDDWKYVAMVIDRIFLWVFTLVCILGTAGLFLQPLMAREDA

Row | Structure (SMILES) | IC50 [1] [nM] | Activity [2] [%] | Ki [3] [nM] | Activity [4] [%] | IC50 [5] [nM] | Emax [6] [%] | inhibition [7] | EC50 [8] [nM] | Activity [9] [%] | IC50 [10] [nM] | IC50 [11] [nM]
1 | c1ccc(C[N+]23CCC(CC2)C(C(c2ccccc2)c2ccccc2)C3)cc1 (stereo not given) | 600 | 0.4 | 2300 | 1 | 80 | 10 | inactive | 9000 | 0.5 |  | 
2 | C(=C1/CN2CCC1CC2)/c1cccnc1 |  | 56 | 1600 | 22 | 10000 | 31 |  | 2000 | 5 |  | 
3 | c1ccc(C(c2ccccc2)C2CN3CCC2CC3)cc1 (stereo not given) | 400 | 7 | 1500 | 2 | 200 | 14 | Active | > 10000 | 0.5 |  | 
4 | c1ccc(C(c2ccccc2)[N+]23CCN(CC2)CC3)cc1 |  | 0.5 | 8500 | 0.7 | 15000 | < 10 |  |  | 1 |  | 
5 | C(=C1/CN2CCC1CC2)/c1ccccc1 |  | 7 | 2100 | 2 | 6000 | 25 |  | 3000 | 1 |  | 
6 | N#CC(c1ccccc1)C1CN2CCC1CC2 (stereo not given) |  | 6 | 2100 | 2 | 23000 | < 10 |  |  | 1 |  | 
7 | C(CN1CCCCC1)=C(c1ccccc1)c1ccccc1 | 380 | 0.6 | 2200 | 0.7 | 100 | 31 | inactive | > 10000 | 0.5 | 75.9 | 372

From ChEMBL document CHEMBL2331086, “Pharmacological properties and predicted binding mode of arylmethylene quinuclidine-like derivatives at the α3β4 nicotinic acetylcholine receptor (nAChR)” (Bioorg Med Chem Lett, 2013)
